Laboratory results published in patent US10405547B2, “Substituted cyclic amides as herbicides” (FMC Corporation, priority 2015, dated 2019).

Legend:
Type in all cases: in vivo
Conditions in all cases: 0 to 100 scale (0 no effect, 100 complete control)
[1] = tested on: barnyardgrass (Echinochloa crus-galli); experiment: Test A preemergence, barnyardgrass
Text: (§1) Test A Seeds of plant species selected from barnyardgrass (Echinochloa crus-galli), kochia (Kochia scoparia), ragweed (common ragweed, Ambrosia elatior), ryegrass, Italian (Lolium multiflorum), foxtail, giant (Setaria faberii), and pigweed (Amaranthus retroflexus), were planted into a blend of loam soil and sand and treated preemergence with a directed soil spray using test chemicals formulated in a non-phytotoxic solvent mixture which included a surfactant.
(§2) At the same time, plants selected from these weed species and also blackgrass (Alopecurus myosuroides), galium (catchweed bedstraw, Galium aparine), wheat (Triticum aestivum), and corn (Zea mays) were planted in pots containing the same blend of loam soil and sand and treated with postemergence applications of test chemicals formulated in the same manner. Plants ranged in height from 2 to 10 cm and were in the one- to two-leaf stage for the postemergence treatment. Treated plants and untreated controls were maintained in a greenhouse for approximately 10 days, after which time all treated plants were compared to untreated controls and visually evaluated for injury. Plant response ratings, summarized in Table A, are based on a 0 to 100 scale where 0 is no effect and 100 is complete control. A dash (-) response means no test result.

kochia (Kochia scoparia) [2] = experiment: Test A preemergence, kochia
Text: as §1, §2

[3] = tested on: ragweed (common ragweed, Ambrosia elatior); experiment: Test A preemergence, ragweed
Text: as §1, §2

[4] = tested on: ryegrass, Italian (Lolium multiflorum); experiment: Test A preemergence, Italian ryegrass
Text: as §1, §2

[5] = tested on: foxtail, giant (Setaria faberii); experiment: Test A preemergence, giant foxtail
Text: as §1, §2

[6] = tested on: pigweed (Amaranthus retroflexus); experiment: Test A preemergence, pigweed
Text: as §1, §2

[7] = tested on: barnyardgrass (Echinochloa crus-galli); experiment: Test A postemergence, barnyardgrass
Text: as §1, §2

kochia (Kochia scoparia) [8] = experiment: Test A postemergence, kochia
Text: as §1, §2

[9] = tested on: ragweed (common ragweed, Ambrosia elatior); experiment: Test A postemergence, ragweed
Text: as §1, §2

[10] = tested on: ryegrass, Italian (Lolium multiflorum); experiment: Test A postemergence, Italian ryegrass
Text: as §1, §2

[11] = tested on: foxtail, giant (Setaria faberii); experiment: Test A postemergence, giant foxtail
Text: as §1, §2

[12] = tested on: pigweed (Amaranthus retroflexus); experiment: Test A postemergence, pigweed
Text: as §1, §2

[13] = tested on: blackgrass (Alopecurus myosuroides); experiment: Test A postemergence, blackgrass
Text: as §1, §2

[14] = tested on: galium (catchweed bedstraw, Galium aparine); experiment: Test A postemergence, galium
Text: as §1, §2

[15] = tested on: wheat (Triticum aestivum); experiment: Test A postemergence, wheat
Text: as §1, §2

corn (Zea mays) = experiment: Test A postemergence, corn
Text: as §1, §2

[16] = 125 g ai/ha, visual injury, approximately 10 days
[17] = 500 g ai/ha, visual injury, approximately 10 days

Structure (SMILES)	Plant response rating, Barnyardgrass ([1]; 31 g ai/ha)	Plant response rating, Barnyardgrass ([1]; 125 g ai/ha)	Plant response rating, Kochia (kochia (Kochia scoparia) [2]; 31 g ai/ha)	Plant response rating, Kochia (kochia (Kochia scoparia) [2]; 125 g ai/ha)	Plant response rating, Ragweed ([3]; 31 g ai/ha)	Plant response rating, Ragweed ([3]; 125 g ai/ha)	Plant response rating, Ryegrass, Italian ([4]; 31 g ai/ha)	Plant response rating, Ryegrass, Italian ([4]; 125 g ai/ha)	Plant response rating, Foxtail, Giant ([5]; 125 g ai/ha)	Plant response rating, Pigweed ([6]; 125 g ai/ha)	Plant response rating, Barnyardgrass [7, 16]	Plant response rating, Kochia (kochia (Kochia scoparia) [8]; [16])	Plant response rating, Ragweed [9, 16]	Plant response rating, Ryegrass, Italian [10, 16]	Plant response rating, Foxtail, Giant [11, 16]	Plant response rating, Pigweed [12, 16]	Plant response rating, Blackgrass [13, 16]	Plant response rating, Galium [14, 16]	Plant response rating, Wheat [15, 16]	Plant response rating, Corn (corn (Zea mays); [16])	further results
O=C1NCC(c2cccc(Oc3ncc(F)cc3F)c2)C1C(=O)Nc1cccc(F)c1F (single isomer, unassigned) [Compound 71]	0	70	0	30	0	0	0	0	90	80	70	20	30	0	70	50	0	50	0	20	Plant response rating, Foxtail, Giant ([5]; 31 g ai/ha): 70; Plant response rating, Pigweed ([6]; 31 g ai/ha): 20; Plant response rating, Barnyardgrass ([7]; 31 g ai/ha): 30; Plant response rating, Kochia (kochia (Kochia scoparia) [8]; 31 g ai/ha): 0; Plant response rating, Ragweed ([9]; 31 g ai/ha): 0; Plant response rating, Ryegrass, Italian ([10]; 31 g ai/ha): 0; Plant response rating, Foxtail, Giant ([11]; 31 g ai/ha): 20; Plant response rating, Pigweed ([12]; 31 g ai/ha): 0; Plant response rating, Blackgrass ([13]; 31 g ai/ha): 0; Plant response rating, Galium ([14]; 31 g ai/ha): 30; Plant response rating, Wheat ([15]; 31 g ai/ha): 0; Plant response rating, Corn (corn (Zea mays); 31 g ai/ha): 0
CN1CC(c2cccc(Oc3ncc(F)cc3F)c2)C(C(=O)Nc2ccccc2F)C1=O (single isomer, unassigned) [Compound 72]	90	90	0	0	0	0	0	50	90	0	90	20	30	50	90	30	60	60	20	20	Plant response rating, Foxtail, Giant ([5]; 31 g ai/ha): 90; Plant response rating, Pigweed ([6]; 31 g ai/ha): 0; Plant response rating, Barnyardgrass ([7]; 31 g ai/ha): 60; Plant response rating, Kochia (kochia (Kochia scoparia) [8]; 31 g ai/ha): 0; Plant response rating, Ragweed ([9]; 31 g ai/ha): 0; Plant response rating, Ryegrass, Italian ([10]; 31 g ai/ha): 20; Plant response rating, Foxtail, Giant ([11]; 31 g ai/ha): 80; Plant response rating, Pigweed ([12]; 31 g ai/ha): 0; Plant response rating, Blackgrass ([13]; 31 g ai/ha): 20; Plant response rating, Galium ([14]; 31 g ai/ha): 40; Plant response rating, Wheat ([15]; 31 g ai/ha): 0; Plant response rating, Corn (corn (Zea mays); 31 g ai/ha): 0
O=C1NCC(c2cccc(Cn3cncn3)c2)C1C(=O)Nc1ccccc1F (centres unmarked) [Compound 31]		0		0		0		0	0	0	0	0	0	0	0	0	0	0	0	0	Plant response rating, Barnyardgrass ([1]; 500 g ai/ha): 0; Plant response rating, Kochia (kochia (Kochia scoparia) [2]; 500 g ai/ha): 0; Plant response rating, Ragweed ([3]; 500 g ai/ha): 0; Plant response rating, Ryegrass, Italian ([4]; 500 g ai/ha): 0; Plant response rating, Foxtail, Giant ([5]; 500 g ai/ha): 0; Plant response rating, Pigweed ([6]; 500 g ai/ha): 0; Plant response rating, Barnyardgrass [7, 17]: 0; Plant response rating, Kochia (kochia (Kochia scoparia) [8]; [17]): 0; Plant response rating, Ragweed [9, 17]: 0; Plant response rating, Ryegrass, Italian [10, 17]: 0; Plant response rating, Foxtail, Giant [11, 17]: 0; Plant response rating, Pigweed [12, 17]: 0; Plant response rating, Blackgrass [13, 17]: 0; Plant response rating, Galium [14, 17]: 20; Plant response rating, Wheat [15, 17]: 0; Plant response rating, Corn (corn (Zea mays); [17]): 0
CN1CC(c2cccc(Oc3ncc(F)cc3F)c2)C(C(=O)Nc2cccc(F)c2F)C1=O (single isomer, unassigned) [Compound 73]	50	90	0	20	0	0	0	40	90	0	70	20	30	40	90	60	40	60	20	20	Plant response rating, Foxtail, Giant ([5]; 31 g ai/ha): 80; Plant response rating, Pigweed ([6]; 31 g ai/ha): 0; Plant response rating, Barnyardgrass ([7]; 31 g ai/ha): 60; Plant response rating, Kochia (kochia (Kochia scoparia) [8]; 31 g ai/ha): 0; Plant response rating, Ragweed ([9]; 31 g ai/ha): 0; Plant response rating, Ryegrass, Italian ([10]; 31 g ai/ha): 0; Plant response rating, Foxtail, Giant ([11]; 31 g ai/ha): 60; Plant response rating, Pigweed ([12]; 31 g ai/ha): 50; Plant response rating, Blackgrass ([13]; 31 g ai/ha): 0; Plant response rating, Galium ([14]; 31 g ai/ha): 50; Plant response rating, Wheat ([15]; 31 g ai/ha): 20; Plant response rating, Corn (corn (Zea mays); 31 g ai/ha): 20
